# According to patent US12251373B2, “Compounds and methods of treating retinal degeneration” (CASE WESTERN RESERVE UNIVERSITY, priority 2017, dated 2025):
# Assays:
# [1] = molecular target: T1, mouse P23H opsin (Mus musculus, UniProt P15409, P23H); test: Immunostain and image-based high-content analysis of P23H mutant opsin in NIH3T3 cells; type: cell-based; conditions: for Immunostaining HCS MEM-Total ratio Max (fit) / EC50: ratio of P23H rod opsin fluorescence on plasma membrane to whole cell; for EC50: 1440 min, read-out: Immunostaining HCS MEM-Total ratio EC50; for effect on cell number: NIH3T3 cells, YC-001 up to 40 μM, 9-cis-retinal higher than 10 μM; for P23H opsin on the plasma membrane: dose-dependent, FIG. 2
# T1 construct: expressed in transfected cells
# Source text: Three NIH3T3 stable cell lines, NIH3T3-(WT-opsin/GFP), NIH3T3-(P23H-opsin/GFP), and NIH3T3-(GFP) were previously generated which stably express mouse WT opsin and GFP; P23H opsin and GFP; and only GFP, respectively. GFP is expressed separately from opsin in these cell lines. NIH3T3 cells were from ATCC. DNA constructs for generating these stable cell lines were confirmed by Sanger sequencing. Expression of GFP was confirmed by green fluorescence imaging, and expression of P23H and WT opsin were confirmed by immunoblots.
# To characterize the effect of active compounds on the localization of P23H mutant opsin in mammalian cells, an image-based assay was used with cells immunostained for WT or P23H mutant opsin protein. Briefly, NIH3T3-(P23H-opsin/GFP) or NIH3T3-(WT-opsin/GFP) cells were seeded at 5,000 cells per well in a 384-well cell-carrier plate (PerkinElmer) and incubated at 37° C. with 5% CO2 for 2 h. Cells were treated with compounds as described for the β-Gal fragment complementation assay and incubated in assay medium for 24 h. The assay medium then was aspirated, and cells were fixed with 4% paraformaldehyde at 20 μL per well for 20 min at RT. Cells were immunostained in one of two ways: cell membranes were either permeabilized with 0.1% Triton X-100 for 15 min or left intact and then were incubated with 10% goat serum (Life Technologies). To detect opsin on the cell plasma membrane only, intact cells were immunostained with 20 μL per well of 20 μg mL^−1 B6-30 anti-rhodopsin antibody that recognizes the N-terminal epitope on the extracellular side of rhodopsin. To detect total opsin, cells were permeabilized with Triton X-100 and immunostained with 50 μg mL^−1 1D4 anti-rhodopsin antibody specific for the C-terminal epitope on the intracellular side of rhodopsin. Opsin immunostaining was visualized by incubating cells with 5 μg mL^−1 Cy3-conjugated goat anti-mouse IgG antibody. Three washes with phosphate-buffered saline (PBS: 10 mM Na2HPO4, 1.8 mM KH2PO4, pH 7.4, 137 mM NaCl, and 2.7 mM KCl) were performed between each step of incubation with antibody. In the last wash with PBS, DAPI was added to each well at 300 nM. Fluorescence images were obtained with the Operetta High Content Imaging System (PerkinElmer) using a 20× long objective. Five fields were taken of each well for cell images using three channels for fluorescence: GFP (100 ms), Cy3 (300 ms), and DAPI (50 ms). Images were analyzed with Acapella software from the Columbus data storage and analysis system (PerkinElmer). For cells immunostained with opsin on the non-permeabilized cell membrane only, an average of total fluorescence intensity of Cy3 per cell was used to quantify opsin in each well of the 384-well plate. For cells immunostained with opsin in permeabilized whole cells, an average ratio of Cy3 intensity on the cell plasma membrane (PM) to that of the entire cell (opsin ratio PM-to-total) was calculated for each well of a 384-well plate to quantify opsin transport to the plasma membrane. The plasma membrane was defined within ±5% of the cell border.
# [2] = molecular target: T2, bovine opsin (Bos taurus, UniProt P02699); test: Ligand-opsin binding by Trp fluorescence quenching in ROS disc membranes; conditions: for EC50: opsin in disc membranes, read-out: EC50 of Trp fluorescence quenching at 330 nm
# T2 construct: ROS membranes were isolated from bovine retinas under dim red light; from tissue; host or cells: bovine retina rod outer segment (ROS) membranes, bleached with hydroxylamine
# Experimental: (§1) ROS membranes were isolated from bovine retinas under dim red light. To remove membrane associated proteins, ROS membranes were washed with a hypotonic buffer composed of 5 mM bis-tris propane (BTP) and 1 mM EDTA, pH 7.5, followed by gentle homogenization with subsequent centrifugation at 25,000 g for 30 min. This procedure was repeated four times. The final membrane pellet was suspended in 10 mM sodium phosphate buffer, pH 7.0, and 50 mM hydroxylamine to a 3 mg mL^−1 concentration of rhodopsin, placed on ice and illuminated with a 150 Watt bulb for 30 min. Membranes were pelleted by centrifugation at 16,000 g for 5 min and then washed four times with 10 mM sodium phosphate buffer, pH 7.0, and 2% bovine serum albumin followed by 4 washes with 10 mM sodium phosphate buffer, pH 7.0, and 2 washes with 20 mM BTP, pH 7.5, and 100 mM NaCl. The concentration of opsin was measured with a UV-visible spectrophotometer and quantified using the absorption coefficient ε280 nm=81,200 M^−1 cm^−1.
# Emission spectra were recorded with a Perkin Elmer L55 Luminescence Spectrophotometer at 20° C. between 300 and 450 nm after excitation at 295 nm, with excitation and emission slit bands set at 5 and 10 nm, respectively. Changes in Trp fluorescence (ΔF/F0; where ΔF is the difference between the initial Trp fluorescence recorded at 330 nm (F0) and Trp fluorescence recorded at 330 nm at a specified YC-001 concentration) were plotted as a function of the ligand concentration. Binding curves were fitted by the Hill function using Origin software for each compound and the EC50 was calculated. All experimental data were corrected for background and self-absorption of excitation and emission light (inner filter effect).
# [3] = molecular target: T2, bovine opsin; test: Isorhodopsin pigment regeneration of opsin in ROS disc membranes (absorption spectroscopy); type: biochemical; conditions: for competition with 9-cis-retinal for isorhodopsin regeneration (absorption at 495 nm): with 5 μM 9-cis-retinal, simultaneously or sequentially
# Experimental: as §1
# ROS membranes containing opsin were suspended in buffer composed of 20 mM BTP, pH 7.5, and 100 mM NaCl at a final concentration of 2.5 μM. […] Membranes then were solubilized with 20 mM DDM for 10 min at RT and UV-visible spectra of these samples were measured. To follow the kinetics of isorhodopsin regeneration, opsin membranes were treated with 0, 20 or 60 μM YC-001 for 15 min at RT. […] UV-visible spectra of the samples were measured every 2 min until 2 h of reaction time at RT. Each condition was repeated three times. The time course of isorhodopsin regeneration was fitted by a second order exponential decay and apparent half-lives were obtained at the time when reaction reached half of the end-point product.
# Alternatively, opsin incubated with the above ligands was purified by 1D4-immunoaffinity chromatography. […] After washing, opsin samples were eluted by addition of 1D4 peptide ([…]) (SEQ ID NO: 1) to the above buffer and their spectra were measured with a UV-visible spectrophotometer.
# T2 sequence (P02699 whole entry): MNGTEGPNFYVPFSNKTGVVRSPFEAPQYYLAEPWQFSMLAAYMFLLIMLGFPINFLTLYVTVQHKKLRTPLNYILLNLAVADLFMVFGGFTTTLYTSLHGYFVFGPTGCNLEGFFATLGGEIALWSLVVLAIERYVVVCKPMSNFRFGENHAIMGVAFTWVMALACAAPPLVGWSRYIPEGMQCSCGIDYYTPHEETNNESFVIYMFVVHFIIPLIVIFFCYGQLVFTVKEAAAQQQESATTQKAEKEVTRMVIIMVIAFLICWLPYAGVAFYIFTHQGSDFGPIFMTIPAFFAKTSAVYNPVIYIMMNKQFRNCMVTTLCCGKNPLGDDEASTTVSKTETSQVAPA
Immunostaining HCS MEM-Total ratio Max (fit) [1],EC50 [1] [nM],effect on Trp fluorescence ([2]; FIG. 3G),SMILES,competition with 9-cis-retinal for isorhodopsin regeneration (absorption at 495 nm) [3],"ratio of P23H opsin stain in the ER region to total P23H opsin staining ([1]; FIG. 2M,N)",effect on cell number [1],P23H opsin on the plasma membrane [1],EC50 [2] [nM],total amount of regenerated isorhodopsin pigment at the end of the reaction ([3]; FIG. 4d),"kinetics of isorhodopsin pigment regeneration ([3]; YC-001 then 9-cis-retinal, FIG. 4d)",reversibility of interaction with opsin ([3]; after opsin/isorhodopsin purification)
0.070,380,didn't affect Trp fluorescence,"O=C(CCCCCN1C(=O)c2cccc3cccc(c23)C1=O)NO [Scriptaid, reference compound]",does not compete with 9-cis-retinal,,,,,,,
0.019,377,,"CC1=C(/C=C/C(C)=C\C=C\C(C)=C\C=O)C(C)(C)CCC1 [9-cis-retinal, reference compound]",,,killed most cells,increased,1200 ± 100,,,

SMILES,Immunostaining HCS MEM-Total ratio Max (fit) [1],EC50 [1] [nM],effect on Trp fluorescence ([2]; FIG. 3G),competition with 9-cis-retinal for isorhodopsin regeneration (absorption at 495 nm) [3],"ratio of P23H opsin stain in the ER region to total P23H opsin staining ([1]; FIG. 2M,N)",effect on cell number [1],P23H opsin on the plasma membrane [1],EC50 [2] [nM],total amount of regenerated isorhodopsin pigment at the end of the reaction ([3]; FIG. 4d),"kinetics of isorhodopsin pigment regeneration ([3]; YC-001 then 9-cis-retinal, FIG. 4d)",reversibility of interaction with opsin ([3]; after opsin/isorhodopsin purification)
O=C1OCC(c2ccc(Cl)s2)=C1c1cccs1 [YC-001],0.030,2750,,less isorhodopsin was generated,decreased,did not affect cell number,increased,980 ± 50,didn't affect the total amount,slowed down the kinetics of pigment regeneration,reversible
